Measured values as given in patent publication US12577238B2, “Compositions and methods for modulating inflammatory and degenerative disorder” (University of Southern California, priority 2018, dated 2026).
Entries after “also recorded” stand apart in the source; their conditions may differ.

T1: gp130 (Homo sapiens, UniProt P40189)
T1 construct: endogenous in cells; host or cells: adult human articular chondrocytes (three donors)
T1 sequence (P40189 23-918): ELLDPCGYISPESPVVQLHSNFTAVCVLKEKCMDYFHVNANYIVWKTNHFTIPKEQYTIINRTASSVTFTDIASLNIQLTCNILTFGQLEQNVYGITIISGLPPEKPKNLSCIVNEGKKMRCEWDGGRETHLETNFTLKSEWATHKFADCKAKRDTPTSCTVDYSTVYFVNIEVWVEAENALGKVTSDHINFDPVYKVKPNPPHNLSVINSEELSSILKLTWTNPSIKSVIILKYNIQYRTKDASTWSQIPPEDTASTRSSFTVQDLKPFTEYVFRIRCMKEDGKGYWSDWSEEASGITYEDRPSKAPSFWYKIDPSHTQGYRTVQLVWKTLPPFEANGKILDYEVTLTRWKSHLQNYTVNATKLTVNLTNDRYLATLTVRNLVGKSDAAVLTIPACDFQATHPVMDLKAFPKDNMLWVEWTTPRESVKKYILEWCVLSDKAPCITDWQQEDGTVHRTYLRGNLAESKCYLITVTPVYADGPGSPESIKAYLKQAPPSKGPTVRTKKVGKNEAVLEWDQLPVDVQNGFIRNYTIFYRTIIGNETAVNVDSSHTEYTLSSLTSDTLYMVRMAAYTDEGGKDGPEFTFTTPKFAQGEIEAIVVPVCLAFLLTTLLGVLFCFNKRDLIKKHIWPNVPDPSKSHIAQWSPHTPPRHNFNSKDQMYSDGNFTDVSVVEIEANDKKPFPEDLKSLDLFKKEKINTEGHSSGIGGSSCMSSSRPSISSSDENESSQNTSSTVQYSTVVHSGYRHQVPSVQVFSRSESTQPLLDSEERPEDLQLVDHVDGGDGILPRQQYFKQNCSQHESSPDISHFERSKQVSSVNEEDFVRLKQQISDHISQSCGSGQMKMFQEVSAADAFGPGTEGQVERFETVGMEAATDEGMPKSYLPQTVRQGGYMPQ

T2: gp130 (Rattus norvegicus, UniProt P40190)
T2 construct: from tissue; host or cells: rat knee joint in vivo (Sprague-Dawley wild-type in the CFA model)
T2 sequence (P40190 23-918): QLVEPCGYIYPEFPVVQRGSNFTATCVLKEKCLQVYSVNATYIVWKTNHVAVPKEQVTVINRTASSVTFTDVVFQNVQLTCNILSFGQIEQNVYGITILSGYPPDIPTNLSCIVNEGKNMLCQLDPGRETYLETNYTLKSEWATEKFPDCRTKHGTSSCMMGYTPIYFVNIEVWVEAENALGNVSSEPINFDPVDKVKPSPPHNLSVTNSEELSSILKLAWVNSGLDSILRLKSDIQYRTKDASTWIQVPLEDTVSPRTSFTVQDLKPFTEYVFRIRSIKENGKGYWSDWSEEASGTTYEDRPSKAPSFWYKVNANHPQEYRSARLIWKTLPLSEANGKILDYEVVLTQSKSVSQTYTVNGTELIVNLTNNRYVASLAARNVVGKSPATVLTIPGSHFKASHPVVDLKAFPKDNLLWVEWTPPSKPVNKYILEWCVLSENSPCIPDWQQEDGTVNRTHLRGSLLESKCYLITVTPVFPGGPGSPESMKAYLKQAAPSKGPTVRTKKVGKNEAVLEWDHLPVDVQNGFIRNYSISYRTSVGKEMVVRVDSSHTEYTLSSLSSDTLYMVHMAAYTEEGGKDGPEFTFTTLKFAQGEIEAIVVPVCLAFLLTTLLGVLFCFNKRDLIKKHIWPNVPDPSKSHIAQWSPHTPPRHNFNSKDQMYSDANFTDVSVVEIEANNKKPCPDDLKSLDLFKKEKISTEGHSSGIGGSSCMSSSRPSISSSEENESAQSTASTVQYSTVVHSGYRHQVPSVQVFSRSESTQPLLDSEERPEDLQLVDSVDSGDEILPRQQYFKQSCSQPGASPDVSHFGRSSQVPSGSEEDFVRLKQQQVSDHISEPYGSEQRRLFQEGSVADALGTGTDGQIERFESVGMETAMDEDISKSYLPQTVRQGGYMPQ


Legend:
[1] = tested on: adult pig articular chondrocytes; assay: Proteins mediating pro-inflammatory signals with or without OSM; assay type: cell-based
From the text: (§1) Firstly, RCGD 423 was a hit from a library; this made the depth of the discovery surrounding the technology less comprehensive. Additionally, the physical properties of RCGD 423 (solubility, potency, functional groups) could be improved. Significant gains in these areas could potentially result in a first-in-class injectable for the treatment of post-traumatic OA. Moreover, the potential risks associated with promoting MYC stabilization and proliferation in gp130^+ cells as well as large increases in active STAT3 protein was of concern. […] These compounds were then screened in adult pig articular chondrocytes and cartilage explants, seeking compounds that could inhibit the catabolic effects of OSM but not drive increases in MYC and pSTAT3 protein levels. […] Together, these preliminary data identify CX-011 (B8) as a highly anti-inflammatory, anti-catabolic alternative to RCGD 423, with increased “drug-like” properties and reduced potential molecular liabilities.

[2] = tested on: pig articular cartilage explants; assay: Matrix degradation assay, OSM-driven, pig articular cartilage explants; assay type: cell-based; settings: driven by OSM
Method: FIG. 22A-C show matrix degradation assays.
72 hour exposure to the drug and OSM. […] Effect is concentration dependent and increases with increase in drug concentration.
as §1

[3] = target: T1, gp130; assay: OSM-mediated activation of gp130 in adult human articular chondrocytes; assay type: cell-based; settings: three independent donors
From the text: 423F is the positive control drug. Adult human articular chondrocytes from three independent donors were used to generate the results.
Adult human articular chondrocytes from three independent donors were used to generate the results.
Adult human articular chondrocytes from three independent donors were used.

[4] = tested on: adult pig articular chondrocytes; assay: Western blot of signaling proteins (pSTAT3, MYC, MAPK, AKT, NF-κB) in pig articular chondrocytes; assay type: cell-based; settings: for levels of active STAT3 (pSTAT3) and MYC proteins: Western blot, analogs at 10 μM; for activation of the MAPK, AKT and NF-κB pathways: adult pig articular chondrocytes
Method: (A) Class 1 molecules (marked by red arrows) activate STAT3 and MYC signaling pathways wile Class 2 molecules (blue arrows) have no stimulatory effects on STAT3 and MYC signaling in chondrocytes as determined by western blot analysis. (B) Structures of the most prominent Class 1 and Class 2 molecules. […] All drugs were tested at 10 μM and assessed using Western Blot.
All drugs tested at 10 μM and assessed using Western Blot.
(§2) To begin to address the mechanism of action of RCGD 423, adult pig chondrocytes were incubated with the drug, IL-6 family cytokines or the pro-catabolic cytokines TNF-α and IL-1β and measured levels of various proteins downstream of these cytokines that are known to drive catabolic responses (FIG. 3).
as §1

[5] = target: T2, gp130; assay: Injection into rat knees, pSTAT3 and MYC levels; assay type: in vivo; settings: co-injection with RCGD 423 into rat knees
Method: Based on this, it was hypothesized that RCGD 423 acts through gp130 by promoting stable homodimers in the absence of ligand. To confirm that RCGD 423 acts through gp130, the gp130 null cell line Ba/F3 cells was used. Ba/F3 cells were transfected with either full-length gp130 or a mutant gp130 lacking domain 2 (ΔD2), which contains the predicted binding site for RCGD 423 (FIG. 7). […] To verify the specificity of RCGD 423 in vivo, the compound was injected into rat knees in the presence of the small molecule gp130 inhibitor SC144 or a blocking antibody specific for domain 2 of gp130. […] The ability of RCGD 423 to act via inducing formation of gp130 homodimers was then examined by expressing tagged versions of gp130 in 293T cells. In this system, only homodimeric complexes can contain both tagged versions of gp130 (FIG. 9).

[6] = tested on: ADAMTS4/5 and MMP13; assay: qPCR for proteolytic enzymes in adult pig chondrocytes; assay type: cell-based
Method: as §2

[7] = tested on: MMP13 and ADAMTS4; assay: OSM-induced MMP13 and ADAMTS4 levels; assay type: cell-based

Molecule	OSM-mediated activation of gp130 [3]	breakdown of collagen and aggrecan (aggrecan-neo, collagen-neo epitopes) [2]	levels of active STAT3 (pSTAT3) and MYC proteins [4]	further results
Cc1ccc(-c2csc(NC(=O)c3ccno3)n2)cc1 [B8]	inhibit OSM-mediated activation of gp130			increases in proteins mediating pro-inflammatory signals ([1]; in the presence of OSM): strongly inhibits increases in these proteins in the presence of OSM; endogenous levels of proteins mediating pro-inflammatory signals ([1]; without OSM): little effect; breakdown of collagen and aggrecan (aggrecan-neo, collagen-neo epitopes) ([2]; listed as CX-011): prevents the breakdown of collagen and aggrecan; increase in catalytic enzymes / induction of proteolytic gene expression ([2]; listed as CX-011): prevents; breakdown of collagen and aggrecan (aggrecan-neo, collagen-neo epitopes) ([2]; listed as CX-011 (B8)): almost completely blocked the generation of aggrecan and collagen neoepitopes; increase in catalytic enzymes / induction of proteolytic gene expression ([2]; listed as CX-011 (B8)): reduced the induction of proteolytic gene expression; levels of active STAT3 (pSTAT3) and MYC proteins ([4]; listed as CX-011): do not affect levels of pSTAT3 or MYC protein; levels of active STAT3 (pSTAT3) and MYC proteins ([4]; listed as CX-011 (B8)): did not increase levels of pSTAT3 and MYC
Cc1ccc(-c2csc(NC(=O)c3cnco3)n2)cc1 [B803]	inhibit OSM-mediated activation of gp130; also recorded: inhibit OSM-mediate d activation of gp130			
Cc1ccc(-c2cccc(NC(=O)c3ccno3)n2)cc1 [B810]		can also strongly prevent the breakdown of collagent and aggrecan	pSTAT3 and MYC activating	
Cc1ccccc1-c1csc(NC(=O)c2ccno2)n1 [B815]	inhibit OSM-mediated activation of gp130; also recorded: inhibit OSM-mediate d activation of gp130			
O=C(Nc1nc(C2CC2)cs1)c1ccno1 [B826]	strongly inhibits OSM-mediated activation of gp130	can still strongly prevent the breakdown of collagen and aggrecan		
Cc1ccc(-c2cccc(NC(=O)c3ccccn3)n2)cc1 [B839]		strongly prevent the breakdown of collagen and aggrecan		
Cc1ccc(-c2csc(NC(=O)c3oncc3C)n2)cc1 [B840]		can also strongly prevent the breakdown of collagent and aggrecan	pSTAT3 and MYC activating	
Cc1ccc(-c2nc(NC(=O)c3ccccn3)cs2)cc1 [B843]		can still strongly prevent the breakdown of collagen and aggrecan		
Cc1ccccc1-c1cccc(NC(=O)c2ccno2)n1 [B849]		can still strongly prevent the breakdown of collagen and aggrecan		
O=C(NNc1nc2cc(F)ccc2n2cccc12)c1cnccn1 [SC144]				blockade of signaling downstream of RCGD 423 [5]: completely inhibited signaling downstream of RCGD 423; also recorded: could be blocked by co-injection
IL-6: IL-6 family cytokine			increased levels of active STAT3 and MYC proteins	activation of the MAPK, AKT and NF-κB pathways [4]: activated the MAPK, AKT and NF-κB pathways; expression of proteolytic enzymes ADAMTS4/5 and MMP13 [6]: significant increases in the expression of these genes
LIF: leukemia inhibitory factor, IL-6 family cytokine			increased levels of active STAT3 and MYC proteins	activation of the MAPK, AKT and NF-κB pathways [4]: activated the MAPK, AKT and NF-κB pathways; expression of proteolytic enzymes ADAMTS4/5 and MMP13 [6]: significant increases in the expression of these genes
OSM: pro-inflammatory cytokine oncostatin M (protein, UniProt P13725 26-221, looked up) Oncostatin-M: AAIGSCSKEYRVLLGQLQKQTDLMQDTSRLLDPYIRIQGLDVPKLREHCRERPGAFPSEETLRGLGRRGFLQTLNATLGCVLHRLADLEQRLPKAQDLERSGLNIEDLEKLQMARPNILGLRNNIYCMAQLLDNSDTAEPTKAGRGASQPPTPTPASDAFQRKLEGCRFLHGYHRFMHSVGRVFSKWGESPNRSRR				levels of MMP13 and ADAMTS4 (degradation of cartilage matrix proteins) [7]: upregulates levels of MMP13 and ADAMTS proteases
